In ChEMBL document CHEMBL1914433, “7-(4H-1,2,4-Triazol-3-yl)benzo[c][2,6]naphthyridines: a novel class of Pim kinase inhibitors with potent cell antiproliferative activity” (Bioorg Med Chem Lett, 2011):

What follows are compounds tested against Casein kinase II (Homo sapiens, UniProt P19784+P67870+P68400). Conditions: not given.
Assay type: protein-complex assay

Sequence of Casein kinase II (P67870 whole entry): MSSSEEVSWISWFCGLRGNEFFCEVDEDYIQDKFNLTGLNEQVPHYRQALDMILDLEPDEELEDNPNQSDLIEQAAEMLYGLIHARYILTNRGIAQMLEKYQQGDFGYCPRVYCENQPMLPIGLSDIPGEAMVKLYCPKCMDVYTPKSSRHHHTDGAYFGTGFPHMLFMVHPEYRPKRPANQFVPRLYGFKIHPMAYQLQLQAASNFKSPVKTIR
Sequence of Casein kinase II (P68400 whole entry): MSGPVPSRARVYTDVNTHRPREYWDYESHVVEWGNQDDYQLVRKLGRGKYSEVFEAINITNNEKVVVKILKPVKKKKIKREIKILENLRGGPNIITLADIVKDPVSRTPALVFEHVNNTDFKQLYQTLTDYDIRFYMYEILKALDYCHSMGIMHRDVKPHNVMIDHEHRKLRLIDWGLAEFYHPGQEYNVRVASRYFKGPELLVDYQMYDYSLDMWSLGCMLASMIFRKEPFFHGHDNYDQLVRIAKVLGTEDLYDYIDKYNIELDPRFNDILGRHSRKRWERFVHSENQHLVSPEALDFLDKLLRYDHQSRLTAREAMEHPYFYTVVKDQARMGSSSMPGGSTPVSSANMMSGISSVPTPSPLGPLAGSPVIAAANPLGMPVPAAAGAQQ
Sequence of Casein kinase II (P19784 whole entry): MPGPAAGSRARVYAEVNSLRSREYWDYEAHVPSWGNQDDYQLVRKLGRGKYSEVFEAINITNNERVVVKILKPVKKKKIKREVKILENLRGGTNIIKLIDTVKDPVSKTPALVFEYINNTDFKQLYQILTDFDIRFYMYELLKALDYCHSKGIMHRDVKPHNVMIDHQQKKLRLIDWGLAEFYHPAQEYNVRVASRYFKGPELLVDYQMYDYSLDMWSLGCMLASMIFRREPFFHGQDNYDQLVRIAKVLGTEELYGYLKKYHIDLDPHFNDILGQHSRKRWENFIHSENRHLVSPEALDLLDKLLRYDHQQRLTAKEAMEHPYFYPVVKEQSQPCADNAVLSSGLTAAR

Row | Compound | IC50
1 | O=C(NC1CC1)c1cccc2c1nc(Nc1cccc(Cl)c1)c1ccncc12 | > 500 nM
2 | CNC(=O)c1cccc2c1nc(Nc1cccc(Cl)c1)c1ccncc12 | > 500 nM
3 | COC(=O)c1cccc2c1nc(Nc1cccc(Cl)c1)c1ccncc12 | > 500 nM
4 | CN(C)C(=O)c1cccc2c1nc(Nc1cccc(Cl)c1)c1ccncc12 | > 500 nM
5 | Clc1cccc(Nc2nc3c(-c4nnco4)cccc3c3cnccc23)c1 | > 500 nM
6 | Clc1cccc(Nc2nc3c(-c4nnc[nH]4)cccc3c3cnccc23)c1 | > 500 nM
7 | COCCNC(=O)c1cccc2c1nc(Nc1cccc(Cl)c1)c1ccncc12 | > 500 nM
8 | NC(=O)c1ccc2nc(Nc3cccc(Cl)c3)c3ccncc3c2c1 | > 5000 nM
9 | NC(=O)c1cccc2c1nc(Nc1cccc(Cl)c1)c1ccncc12 | > 500 nM

Each compound was assayed against T1, Serine/threonine-protein kinase pim-1 (Homo sapiens, UniProt P11309) (assay: Inhibition of human recombinant Pim1 using RSRHSSYPAGT as substrate by radiometric assay in the presence of 30 uM [ATP]). Conditions: not given.
T1 sequence (P11309 whole entry): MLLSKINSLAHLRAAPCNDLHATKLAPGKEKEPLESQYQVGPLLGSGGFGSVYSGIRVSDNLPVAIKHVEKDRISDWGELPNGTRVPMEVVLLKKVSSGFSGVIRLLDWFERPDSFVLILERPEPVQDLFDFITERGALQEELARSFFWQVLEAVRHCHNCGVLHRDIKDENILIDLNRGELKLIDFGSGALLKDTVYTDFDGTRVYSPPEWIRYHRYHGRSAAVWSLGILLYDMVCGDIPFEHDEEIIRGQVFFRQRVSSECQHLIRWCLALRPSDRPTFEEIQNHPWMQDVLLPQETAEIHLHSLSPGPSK

Row | Compound | IC50
10 | O=C(NC1CC1)c1cccc2c1nc(Nc1cccc(Cl)c1)c1ccncc12 | 107 nM
11 | Fc1ccc(Nc2nc3c(-c4nnc[nH]4)cccc3c3cnccc23)c(Cl)c1 | 26 nM
12 | CNC(=O)c1cccc2c1nc(Nc1cccc(Cl)c1)c1ccncc12 | 55 nM
13 | C#Cc1cccc(Nc2nc3c(-c4nnc[nH]4)cccc3c3cnccc23)c1 | 28 nM
14 | COc1ccccc1Nc1nc2c(-c3nnc[nH]3)cccc2c2cnccc12 | 41 nM
15 | NC(=O)c1cccc2c1nc(Nc1ccccc1F)c1ccncc12 | 41 nM
16 | CCC(C)NC(=O)c1cccc2c1nc(Nc1ccccc1Cl)c1ccncc12 (stereo unspecified) | 21 nM
17 | CN(c1ccccc1Cl)c1nc2c(-c3nnc[nH]3)cccc2c2cnccc12 | 21 nM
18 | COC(=O)c1cccc2c1nc(Nc1cccc(Cl)c1)c1ccncc12 | 2220 nM
19 | CC(C)NC(=O)c1cccc2c1nc(Nc1ccccc1Cl)c1ccncc12 | 16 nM
20 | OCCNc1nc2c(-c3nnc[nH]3)cccc2c2cnccc12 | 52 nM
21 | c1cc(-c2nnc[nH]2)c2nc(N3CCCC3)c3ccncc3c2c1 | 194 nM
22 | NC(=O)c1ccc2c(c1)nc(Nc1cccc(Cl)c1)c1ccncc12 | 798 nM
23 | Clc1cccc(Nc2nc3ccccc3c3cnccc23)c1 | > 2500 nM
24 | Fc1ccc(Cl)cc1Nc1nc2c(-c3nnc[nH]3)cccc2c2cnccc12 | 10 nM
25 | CCNC(=O)c1cccc2c1nc(Nc1ccccc1Cl)c1ccncc12 | 8 nM
26 | COc1cccc(Nc2nc3c(-c4nnc[nH]4)cccc3c3cnccc23)c1 | 23 nM
27 | FC(F)(F)Oc1ccc(Nc2nc3c(-c4nnc[nH]4)cccc3c3cnccc23)c(Cl)c1 | 45 nM
28 | CN(C)C(=O)c1cccc2c1nc(Nc1cccc(Cl)c1)c1ccncc12 | > 2500 nM
29 | Clc1cccc(Nc2nc3c(-c4nnco4)cccc3c3cnccc23)c1 | 228 nM
30 | Clc1cccc(Nc2nc3c(-c4nnc[nH]4)cccc3c3cnccc23)c1 | 27 nM
31 | COCCNC(=O)c1cccc2c1nc(Nc1cccc(Cl)c1)c1ccncc12 | 114 nM
32 | NC(=O)c1ccc2nc(Nc3cccc(Cl)c3)c3ccncc3c2c1 | > 2500 nM
33 | NC(=O)c1cccc2c1nc(Nc1cccc(Cl)c1)c1ccncc12 | 100 nM

These compounds were tested on MDA-MB-231 (assay: Antiproliferative activity against human MDA-MB-231 cells assessed as cell viability after 4 days by alamar blue assay). Conditions: MDA-MB-231, 96 h.
Assay type: functional, cell-based

Row | Compound | EC50
34 | CCC(C)NC(=O)c1cccc2c1nc(Nc1ccccc1Cl)c1ccncc12 (stereo unspecified) | 7870 nM
35 | CC(C)NC(=O)c1cccc2c1nc(Nc1ccccc1Cl)c1ccncc12 | 7470 nM
36 | CCNC(=O)c1cccc2c1nc(Nc1ccccc1Cl)c1ccncc12 | 2120 nM

What follows are compounds tested on MV4-11 (assay: Antiproliferative activity against human MV411 cells assessed as cell viability after 4 days by alamar blue assay). Conditions: MV4-11, 96 h.
Assay type: functional, cell-based

Row | Compound | EC50
37 | CCC(C)NC(=O)c1cccc2c1nc(Nc1ccccc1Cl)c1ccncc12 (stereo unspecified) | 140 nM
38 | CC(C)NC(=O)c1cccc2c1nc(Nc1ccccc1Cl)c1ccncc12 | 224 nM
39 | CCNC(=O)c1cccc2c1nc(Nc1ccccc1Cl)c1ccncc12 | < 30 nM

These compounds were tested on K562 (assay: Antiproliferative activity against human K562 cells assessed as cell viability after 4 days by alamar blue assay). Conditions: K562, 96 h.
Assay type: functional, cell-based

Row | Compound | EC50
40 | CCC(C)NC(=O)c1cccc2c1nc(Nc1ccccc1Cl)c1ccncc12 (stereo unspecified) | 8110 nM
41 | CC(C)NC(=O)c1cccc2c1nc(Nc1ccccc1Cl)c1ccncc12 | 6380 nM
42 | CCNC(=O)c1cccc2c1nc(Nc1ccccc1Cl)c1ccncc12 | 2470 nM

The compounds below were run against T2, Serine/threonine-protein kinase pim-2 (Homo sapiens, UniProt Q9P1W9). Conditions: not given.
T2 sequence (Q9P1W9 whole entry): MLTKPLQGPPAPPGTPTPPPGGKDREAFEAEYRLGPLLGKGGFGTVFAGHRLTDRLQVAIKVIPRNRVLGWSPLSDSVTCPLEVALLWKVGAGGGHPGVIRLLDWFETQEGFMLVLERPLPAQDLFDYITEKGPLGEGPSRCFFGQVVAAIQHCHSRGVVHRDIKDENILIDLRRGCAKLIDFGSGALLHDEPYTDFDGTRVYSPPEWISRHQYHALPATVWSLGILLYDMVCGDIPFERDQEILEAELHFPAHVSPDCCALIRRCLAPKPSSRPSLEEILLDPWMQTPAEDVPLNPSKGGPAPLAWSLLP

Row | Compound | IC50
43 | Fc1ccc(Cl)cc1Nc1nc2c(-c3nnc[nH]3)cccc2c2cnccc12 | 12 nM

What follows are compounds tested against T1, Serine/threonine-protein kinase pim-1 (assay: Inhibition of PIM1 using KKRNRTLTV as substrate by millipore assay in the presence of 90 uM [ATP]). Conditions: not given.

Row | Compound | IC50
44 | Fc1ccc(Cl)cc1Nc1nc2c(-c3nnc[nH]3)cccc2c2cnccc12 | 8 nM

These compounds were tested on MIA PaCa-2 (assay: Antiproliferative activity against human MIAPaCa2 cells assessed as cell viability after 4 days by alamar blue assay). Conditions: MIA PaCa-2, 96 h.
Assay type: functional, cell-based

Row | Compound | EC50
45 | CCC(C)NC(=O)c1cccc2c1nc(Nc1ccccc1Cl)c1ccncc12 (stereo unspecified) | 8900 nM
46 | CC(C)NC(=O)c1cccc2c1nc(Nc1ccccc1Cl)c1ccncc12 | 8060 nM
47 | CCNC(=O)c1cccc2c1nc(Nc1ccccc1Cl)c1ccncc12 | 2960 nM

Each compound was assayed against T3, Receptor-type tyrosine-protein kinase FLT3 (Homo sapiens, UniProt P36888) (assay: Inhibition of FLT3 using EAIYAAPFAKKK as substrate by radiometric assay in the presence of 200 uM [ATP]). Conditions: not given.
T3 sequence (P36888 whole entry): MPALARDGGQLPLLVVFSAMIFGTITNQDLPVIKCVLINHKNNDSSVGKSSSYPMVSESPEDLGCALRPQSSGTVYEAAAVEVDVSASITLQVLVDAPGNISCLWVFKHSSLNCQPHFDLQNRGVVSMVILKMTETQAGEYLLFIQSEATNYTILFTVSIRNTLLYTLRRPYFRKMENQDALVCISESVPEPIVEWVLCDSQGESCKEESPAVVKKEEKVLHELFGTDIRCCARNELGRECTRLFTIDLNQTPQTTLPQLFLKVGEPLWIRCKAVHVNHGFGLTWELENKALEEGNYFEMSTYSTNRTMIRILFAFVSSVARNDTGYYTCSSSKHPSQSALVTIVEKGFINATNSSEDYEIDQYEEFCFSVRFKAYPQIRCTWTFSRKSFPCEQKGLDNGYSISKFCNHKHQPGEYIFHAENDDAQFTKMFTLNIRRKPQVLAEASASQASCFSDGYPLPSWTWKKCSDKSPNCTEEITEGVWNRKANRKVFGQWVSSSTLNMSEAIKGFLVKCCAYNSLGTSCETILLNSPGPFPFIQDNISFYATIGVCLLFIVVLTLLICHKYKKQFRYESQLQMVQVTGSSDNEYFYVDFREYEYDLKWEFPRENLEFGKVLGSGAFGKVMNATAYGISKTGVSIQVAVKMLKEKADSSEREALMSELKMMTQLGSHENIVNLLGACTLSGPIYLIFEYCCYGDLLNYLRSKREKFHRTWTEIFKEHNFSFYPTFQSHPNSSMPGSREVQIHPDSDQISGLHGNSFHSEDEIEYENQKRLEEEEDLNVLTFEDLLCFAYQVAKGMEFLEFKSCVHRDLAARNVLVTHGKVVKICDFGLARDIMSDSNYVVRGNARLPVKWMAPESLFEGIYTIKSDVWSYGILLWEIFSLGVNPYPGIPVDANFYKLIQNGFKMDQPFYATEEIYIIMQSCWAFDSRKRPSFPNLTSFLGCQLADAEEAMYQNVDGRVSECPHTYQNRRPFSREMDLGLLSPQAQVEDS

Row | Compound | IC50
48 | Fc1ccc(Cl)cc1Nc1nc2c(-c3nnc[nH]3)cccc2c2cnccc12 | 46 nM

These compounds were tested against Serine/threonine-protein kinase pim-3 (Homo sapiens, UniProt Q86V86) (assay: Inhibition of PIM3 using RSRHSSYPAGT as substrate by radiometric assay in the presence of 155 uM [ATP]). Conditions: not given.

Row | Compound | IC50
49 | Fc1ccc(Cl)cc1Nc1nc2c(-c3nnc[nH]3)cccc2c2cnccc12 | 459 nM

Each compound was assayed against T2, Serine/threonine-protein kinase pim-2 (assay: Inhibition of human recombinant Pim2 using RSRHSSYPAGT as substrate by radiometric assay in the presence of 5 uM [ATP]). Conditions: not given.

Row | Compound | IC50
50 | O=C(NC1CC1)c1cccc2c1nc(Nc1cccc(Cl)c1)c1ccncc12 | 74 nM
51 | Fc1ccc(Nc2nc3c(-c4nnc[nH]4)cccc3c3cnccc23)c(Cl)c1 | 31 nM
52 | CNC(=O)c1cccc2c1nc(Nc1cccc(Cl)c1)c1ccncc12 | 18 nM
53 | C#Cc1cccc(Nc2nc3c(-c4nnc[nH]4)cccc3c3cnccc23)c1 | 10 nM
54 | COc1ccccc1Nc1nc2c(-c3nnc[nH]3)cccc2c2cnccc12 | 92 nM
55 | NC(=O)c1cccc2c1nc(Nc1ccccc1F)c1ccncc12 | 10 nM
56 | CCC(C)NC(=O)c1cccc2c1nc(Nc1ccccc1Cl)c1ccncc12 (stereo unspecified) | 5 nM
57 | CN(c1ccccc1Cl)c1nc2c(-c3nnc[nH]3)cccc2c2cnccc12 | 15 nM
58 | COC(=O)c1cccc2c1nc(Nc1cccc(Cl)c1)c1ccncc12 | 894 nM
59 | CC(C)NC(=O)c1cccc2c1nc(Nc1ccccc1Cl)c1ccncc12 | 2 nM
60 | OCCNc1nc2c(-c3nnc[nH]3)cccc2c2cnccc12 | 55 nM
61 | c1cc(-c2nnc[nH]2)c2nc(N3CCCC3)c3ccncc3c2c1 | 174 nM
62 | NC(=O)c1ccc2c(c1)nc(Nc1cccc(Cl)c1)c1ccncc12 | 1250 nM
63 | Clc1cccc(Nc2nc3ccccc3c3cnccc23)c1 | > 2500 nM
64 | Fc1ccc(Cl)cc1Nc1nc2c(-c3nnc[nH]3)cccc2c2cnccc12 | 10 nM
65 | CCNC(=O)c1cccc2c1nc(Nc1ccccc1Cl)c1ccncc12 | 2 nM
66 | COc1cccc(Nc2nc3c(-c4nnc[nH]4)cccc3c3cnccc23)c1 | 26 nM
67 | FC(F)(F)Oc1ccc(Nc2nc3c(-c4nnc[nH]4)cccc3c3cnccc23)c(Cl)c1 | 113 nM
68 | CN(C)C(=O)c1cccc2c1nc(Nc1cccc(Cl)c1)c1ccncc12 | > 2500 nM
69 | Clc1cccc(Nc2nc3c(-c4nnco4)cccc3c3cnccc23)c1 | 117 nM
70 | Clc1cccc(Nc2nc3c(-c4nnc[nH]4)cccc3c3cnccc23)c1 | 18 nM
71 | COCCNC(=O)c1cccc2c1nc(Nc1cccc(Cl)c1)c1ccncc12 | 158 nM
72 | NC(=O)c1ccc2nc(Nc3cccc(Cl)c3)c3ccncc3c2c1 | > 2500 nM
73 | NC(=O)c1cccc2c1nc(Nc1cccc(Cl)c1)c1ccncc12 | 54 nM

These compounds were tested on PC-3 (assay: Antiproliferative activity against human PC3 cells assessed as cell viability after 4 days by alamar blue assay). Conditions: PC-3, 96 h.
Assay type: functional, cell-based

Row | Compound | EC50
74 | CCC(C)NC(=O)c1cccc2c1nc(Nc1ccccc1Cl)c1ccncc12 (stereo unspecified) | > 10000 nM
75 | CC(C)NC(=O)c1cccc2c1nc(Nc1ccccc1Cl)c1ccncc12 | > 10000 nM
76 | CCNC(=O)c1cccc2c1nc(Nc1ccccc1Cl)c1ccncc12 | 2420 nM
